Source: article PMC2680961, “Homologous desensitization of signalling by the alpha (α) isoform of the human thromboxane A2 receptor: A specific role for nitric oxide signalling” (Biochimica et Biophysica Acta, 2007)
Positions count from the first letter of the chain named.

Key:
TPα^T337,S340A = biological target: T1, TPα^T337,S340A (Homo sapiens, UniProt P21731, S340A/T337A); test: Intracellular calcium mobilization, HEK.TPα^T337,S340A cells; assay type: cell-based
T1 construct: expressed in transfected cells
T1 sequence (P21731 1-343 T337A/S340A): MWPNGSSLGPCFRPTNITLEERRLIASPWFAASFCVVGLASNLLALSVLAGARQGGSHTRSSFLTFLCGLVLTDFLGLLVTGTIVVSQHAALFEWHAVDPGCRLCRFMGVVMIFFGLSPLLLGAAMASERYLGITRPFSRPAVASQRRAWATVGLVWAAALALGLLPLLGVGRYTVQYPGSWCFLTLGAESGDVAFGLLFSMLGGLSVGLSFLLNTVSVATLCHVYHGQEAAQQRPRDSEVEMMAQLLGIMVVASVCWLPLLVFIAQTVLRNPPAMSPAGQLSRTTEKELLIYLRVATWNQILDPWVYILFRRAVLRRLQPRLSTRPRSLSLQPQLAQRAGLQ
Method: (§1) Measurement of intracellular calcium mobilization ([Ca^2+]i) in FURA2/AM preloaded HEK 293 cell lines (2 × 10^6 cells/dish), each transiently co-transfected with pADVA (10 μg), and pCMV:Gαq (25 μg), was carried out as previously described. To investigate the effect of GRK2/βARK1 on TP-mediated [Ca^2+]i mobilization, HEK.TPα or HEK.TPβ cells (2 × 10^6 cells/dish) were co-transfected with pADVA (10 μg), pCMV:Gαq (25 μg) along with pRK5:βARK1^495–689 (25 μg), encoding a dominant negative form of GRK2/βARK1[39]. […] For each measurement of [Ca^2+]i mobilization, aliquots of cells were diluted to 0.825 × 10^6 cells/ml in HBSSHB, 1 mM CaCl2 and FURA2 fluorescence was recorded (2 ml aliquots of cells) at 37^ °C with gentle stirring with a Perkin Elmer-Cetus LS50-B spectrofluorometer at excitation wavelengths of 340 nm and 380 nm and emission wavelength of 510 nm, respectively.
(§2) Cells were stimulated with the TP agonist U46619 (1 μM) and changes in [Ca^2+]i mobilization were monitored as a function of time. […]
(§3) The vehicle had no effect on U46619-mediated [Ca^2+]i mobilization. Calibration of the signal was performed in each sample by adding 0.2% Triton X-100 to obtain the maximal fluorescence ratio (Rmax) and then 1 mM EGTA to obtain the minimal fluorescence ratio (Rmin). […]

TP^S145A,Δ328 = biological target: T2, TP^S145A,Δ328 (Homo sapiens, UniProt P21731, S145A); test: Intracellular calcium mobilization, HEK.TP^S145A,Δ328 cells; assay type: cell-based
T2 construct: expressed in transfected cells
T2 sequence (P21731 1-328 S145A): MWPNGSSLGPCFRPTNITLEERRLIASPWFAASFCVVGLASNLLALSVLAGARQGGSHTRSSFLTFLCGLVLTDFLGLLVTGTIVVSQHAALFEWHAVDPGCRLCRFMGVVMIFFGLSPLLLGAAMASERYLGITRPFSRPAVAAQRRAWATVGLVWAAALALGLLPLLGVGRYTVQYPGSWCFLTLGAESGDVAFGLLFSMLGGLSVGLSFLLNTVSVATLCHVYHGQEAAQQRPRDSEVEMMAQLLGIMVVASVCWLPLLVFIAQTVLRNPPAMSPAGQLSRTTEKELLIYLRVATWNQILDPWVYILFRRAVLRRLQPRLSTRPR
Method: as §1, §2, §3

TPα^T337A = biological target: T3, TPα^T337A (Homo sapiens, UniProt P21731, T337A); test: [3H]SQ29,548 radioligand binding, Scatchard analysis, HEK.TPα^T337A
T3 construct: expressed in transfected cells
T3 sequence (P21731 1-343 T337A): T1 sequence (P21731 1-343 T337A/S340A) with A340S
Method: Cells were harvested by centrifugation at 500×g at 4 °C for 5 min and washed three times with ice-cold Ca^2+/Mg^2+-free phosphate-buffered saline (PBS). TP radioligand binding assays were carried out at 30 °C for 30 min in 100 μl reactions in the presence of 0–40 nM [^3H] […] Protein determinations were carried out using the Bradford assay.
Radioligand binding and Scatchard analysis data were analysed using GraphPad Prisim V4.0 programme (GraphPad Software Inc., San Diego CA, USA). Statistical analyses were carried out using the unpaired Student's t test using the Statworks Analysis Package. p-values ≤ 0.01 indicated statistically significant differences.

[1] = secondary 1 μM U46619 at 15 min

Row | Compound | Δ[Ca2+]i, U46619-induced (TPα^T337,S340A; primary 1 μM U46619 4 min) | Δ[Ca2+]i, U46619-induced (TPα^T337,S340A; [1]) | Δ[Ca2+]i, U46619-induced (TP^S145A,Δ328; primary 1 μM U46619 4 min) | Δ[Ca2+]i, U46619-induced (TP^S145A,Δ328; [1]) | Bmax (pmol/mg protein ± S.E.M.) (TPα^T337A)
1 | CCCCC[C@H](O)/C=C/[C@@H]1[C@@H](C/C=C\CCCC(=O)O)[C@H]2CO[C@@H]1C2 [U46619] | 179 ± 11 nM | 40 ± 3.4 nM | 174 ± 7.7 nM | 170 ± 9.9 nM | 
2 | O=C(O)CCC/C=C\C[C@@H]1[C@H](CNNC(=O)Nc2ccccc2)[C@H]2CC[C@@H]1O2 [SQ29,548] |  |  |  |  | 4.23 ± 0.04 pmol/mg protein
